Results taken from patent publication US11952353B2, “STAT3 transcription factor inhibitors and methods of using the same” (The Regents of the University of Colorado, A Body Corporate, priority 2018, dated 2024).

Experiments:
[1] = biological target: T1, SH2 domain of STAT3 (Homo sapiens, UniProt P40763); experiment: Fluorescence polarization (FP) assay; type: binding; settings: 25 μM
T1 construct: 100 nM of full length GST-tagged human STAT3 protein (Abcam); purchased Abcam
Procedure: FP assay was conducted as previously reported (Steffanie L. Furtek, S. L., et al., Evaluation of quantitative assays for the identification of direct signal transducer and activator of transcription 3 (STAT3) inhibitors (November 2016) Oncotarget 7(47): 77998-78008). Briefly, assay buffer (10 mM HEPES, pH 7.5, 50 mM NaCl, 1 mM EDTA, 2 mM DTT, and 0.01% Triton-X100), 100 nM of full length GST-tagged human STAT3 protein (Abcam), and varying concentrations of compounds were incubated for 1 hour at room temperature with mild agitation in 96-well half area black plates (Corning). Fluorescent peptide 5-FAM-G(pTyr)LPQTV-CONH2 (Genscript) was added to each assay well at a concentration of 10 nM. Final well volumes were 30 μL. Following incubation with fluorescent peptide for 30 minutes at room temperature with mild agitation, plates were examined using FP Fluorescein Dual module with excitation filter FITC FP 480 and emission filter FITC FP P-pol535 and S-pol535. Data was expressed as percent control using the equation % C=(mPdrug−mPfree)/(mPSTAT3−mPfree)*100 where mP is the value for FP measurement.

[2] = biological target: T2, full-length, GST-tagged human STAT3 protein (Homo sapiens, UniProt P40763); experiment: Recombinant STAT3 ELISA (STAT3/DNA binding); type: biochemical; settings: 2 μM; for mean value, % of STAT3 only control: 1 hour incubation
T2 construct: full-length, GST-tagged human STAT3 protein and various concentrations of compounds
T2 sequence (P40763 whole entry): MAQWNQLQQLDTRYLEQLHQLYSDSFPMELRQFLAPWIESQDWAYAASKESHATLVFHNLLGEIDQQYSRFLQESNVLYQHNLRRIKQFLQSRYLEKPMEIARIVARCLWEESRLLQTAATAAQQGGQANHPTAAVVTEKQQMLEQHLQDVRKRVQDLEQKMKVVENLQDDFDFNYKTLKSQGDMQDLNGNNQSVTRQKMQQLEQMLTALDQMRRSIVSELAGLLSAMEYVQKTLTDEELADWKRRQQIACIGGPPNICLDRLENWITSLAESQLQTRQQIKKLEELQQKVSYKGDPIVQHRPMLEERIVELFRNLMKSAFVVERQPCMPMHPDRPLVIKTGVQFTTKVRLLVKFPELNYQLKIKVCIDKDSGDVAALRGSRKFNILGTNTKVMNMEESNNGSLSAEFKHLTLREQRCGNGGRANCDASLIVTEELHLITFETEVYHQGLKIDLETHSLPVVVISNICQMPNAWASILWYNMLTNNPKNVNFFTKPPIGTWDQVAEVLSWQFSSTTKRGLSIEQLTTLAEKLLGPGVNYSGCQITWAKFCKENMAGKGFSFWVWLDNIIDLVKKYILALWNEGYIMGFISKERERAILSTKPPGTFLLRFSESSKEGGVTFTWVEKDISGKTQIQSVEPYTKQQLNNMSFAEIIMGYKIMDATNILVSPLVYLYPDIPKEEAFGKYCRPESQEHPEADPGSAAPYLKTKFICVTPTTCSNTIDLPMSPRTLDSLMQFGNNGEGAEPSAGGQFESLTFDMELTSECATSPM
Procedure: Measurement of STAT3 binding to DNA was performed using a TransAM STAT3 ELISA kit (Active Motif) and according to the previously used protocol. Briefly, full-length, GST-tagged human STAT3 protein and various concentrations of compounds to be evaluated or niclosamide were incubated in Complete Lysis Buffer at a final volume of 20 μL containing 0.1 μg recombinant protein for 1 hour with mild agitation. Following incubation with STAT3 inhibitors, samples were added to corresponding ELISA wells with 30 μL of Complete Binding Buffer and inhibition of STAT3 protein binding to the DNA consensus sequence was determined. Data was reported as percent of control.

[3] = system: HeLa cells; experiment: Caspase 3/7 assay (apoptosis); type: cell-based; settings: 24 and 48 hours
Procedure: The effect of STAT3 inhibitor on caspase activity was evaluated using a Caspase-Glo 3/7 kit (Promega) according to product directions. Briefly, HeLa cells were plated in white-walled, clear bottom 96-well plates at a density of 5,000 cells/well in 100 μL of media and were incubated for 24 hours. Media was then aspirated and replaced with 100 μL of media containing 1 μM or 10 μM of STAT3 inhibitor. Cells were exposed to compounds for 24 and 48 hours, following which plates were allowed to equilibrate to room temperature. Reconstituted caspase reagent was added to sample wells in a 1:1 ratio, mixed, and incubated in the dark for 1 hour. Luminescence was read using a microplate reader.

[4] = biological target: T3, STAT3 (Homo sapiens, UniProt P40763); experiment: Cell-based STAT3 DNA-binding ELISA; settings: HeLa; for reduction of STAT3/DNA-binding: 24 h, 1 μM; for EC50: 24 h dose response
T3 construct: endogenous in cells; host or cells: HeLa
T3 sequence (P40763 whole entry): as above
Procedure: Nuclear extracts were prepared using a nuclear extraction kit (Signosis) according to product directions. Briefly, 100 mm dishes of cells were washed with 1×PBS and then 1 mL of 1× Buffer I was added and dishes were rocked on ice for 10 minutes. Cells were released from the dish using a sterile scraper and centrifuged at 1200 rpm for 5 minutes at 4° C. The supernatant was discarded and the pellets were resuspended in 1× Buffer II and shaken on ice for 2 hours. Samples were centrifuged at 1200 rpm for 5 minutes at 4° C. and the resulting supernatants containing the nuclear extracts were placed in new microcentrifuge tubes. Protein concentrations of samples were determined via Bradford assay.
HeLa cells were plated at 1 million cells per 100 mm dish and incubated for approximately 72 hours, resulting in serum-starved confluent plates. Plates were then washed with PBS and fresh media was added containing concentrations of compounds to be evaluated or niclosamide for 24 hours. For single concentrations of compounds, cells were treated with 1 μM of compounds, as derived from 24 hour MTT assay EC50 value for niclosamide. Dose-responses of niclosamide, compound 8, and compound 17 were similarly prepared at concentrations ranging from 2-0.0156 μM. Following incubation with compounds, cellular nuclear extracts were prepared.
Measurement of STAT3 binding to DNA was performed using the TransAM STAT3 ELISA kit. Sample wells contained 20 μg of nuclear extracts from treated HeLa cells diluted in 20 μL of Complete Lysis Buffer. The ELISA was then performed as described in the recombinant ELISA section. Data was normalized and reported as percent of control.

[5] = system: HeLa cells; experiment: MTT cell viability assay; type: cell-based; settings: 24 h; for EC50: Homo sapiens
Procedure: HeLa cells were plated in 96-well plates at a density of 5,000 cells/well in 100 μL of media and were incubated for 24 hours. Media was then aspirated and replaced with 100 μL of media containing various concentrations of compounds ranging from 500 μM-0.0019 μM. Cells were exposed to compounds for 24 hours, following which the media was aspirated and 50 μL MTT solution diluted in media was added to each well at a final concentration of 1 mg/mL. MTT was exposed to cells for 4 hours, aspirated, and then 100 μL of DMSO was added to each well. Plates were agitated for 10 minutes prior to reading absorbance at 540 nm in a microplate reader. Data was normalized and reported as percent of control.

[6] = system: Leukemia Stem cells (LSCs); experiment: Leukemia stem cell viability (apoptosis markers, flow cytometry); type: cell-based; settings: 24 hours
Procedure: (§1) Leukemia Stem cells (LSCs) were incubated with compound 17 (STAT3i) for 24 hours and cell viability was measured. […] Primary human AML cells were treated with compound 17 (STAT3i). The cells were then cultured on methylcellulose and colony formation was measured. […] STAT3 was knocked down in primary human AML samples using shRNA methods (shSTAT3).

[7] = system: Leukemia Stem cells (LSCs); experiment: RNAseq, qPCR and western blot expression analysis in LSCs; type: cell-based
Procedure: (§2) Leukemia stem cells (LSCs) were incubated with compound 17 (STAT3i) for four hours. Seahorse assays were then used to measure oxygen consumption. […] Flow cytometry analysis verified that there was no cell death at the time of RNAseq analysis. FIG. 19 is a chart showing the expression changes of various genes involved in OXPHOS after incubation with compound 17. FIG. 20 is an image of western blot analysis of the expression of electron transport chain genes after incubating cells with compound 17.
Leukemia stem cells (LSCs) were incubated with compound 17 (STAT3i) and RNAseq analysis was subsequently performed. […] Knockdown of Myc in LSCs using siRNA leads to a subsequent downregulation of the glutamine receptor SLC1A5 and a decrease in OXPHOS.

[8] = system: Leukemia Stem cells (LSCs); experiment: Seahorse assay of oxygen consumption; type: cell-based; settings: four hours incubation
Procedure: as §2

[9] = system: Primary AML cells; experiment: Engraftment of treated primary AML cells transplanted into immunodeficient mice; type: in vivo; settings: then transplanted into immunodeficient mice
Procedure: Primary AML cells were treated with compound 17 (STAT3i) and transplanted into immunodeficient mice.

[10] = system: Cord-blood derived CD34+ normal hematopoietic stem cells; experiment: Viability of normal hematopoietic stem cells; type: cell-based
Procedure: (§3) Cord-blood derived CD34+ normal hematopoietic stem cells were treated with compound 17 (STAT3i).

[11] = system: Primary human AML cells; experiment: Colony formation on methylcellulose; type: cell-based
Procedure: as §1

[12] = system: Primary AML samples; experiment: Glutamine flux, ROS and western blot in primary AML samples; type: cell-based
Procedure: Primary AML samples were incubated with heavy labeled glutamine in flux experiments aimed at measuring TCA cycle metabolites. […] FIG. 22 is a graph showing that reactive oxygen species (ROS) is increased in AML cells that were treated with compound 17 (STAT3i).

[13] = system: Cord-blood derived CD34+ normal hematopoietic stem cells; experiment: Colony formation of normal hematopoietic stem cells; type: cell-based
Procedure: as §3

[14] = biological target: T1, SH2 domain of STAT3; settings: concentrations above 10 μM; cited from earlier work

T1 sequence (P40763 whole entry, the tested form may be a part): as the sequence (P40763 whole entry) above

O=C(Nc1ccc([N+](=O)[O-])cc1Br)c1cc(Br)ccc1O [Compound 2, 5-Bromo-N-(2-bromo-4-nitrophenyl)-2-hydroxybenzamide]
affinity for the SH2 domain [1]: slight affinity for the SH2 domain

O=C(Nc1ccccc1Cl)c1cc(Cl)ccc1O [Compound 3, 5-Chloro-N-(2-chlorophenyl)-2-hydroxybenzamide]
reduction of recombinant STAT3/DNA-binding relative to niclosamide [2]: performed worse than niclosamide | mean value, % of STAT3 only control [2]: 80%

O=C(Oc1ccc([N+](=O)[O-])cc1Cl)c1cc(Cl)ccc1O [Compound 4, 2-Chloro-4-nitrophenyl 5-chloro-2-hydroxybenzoate]
reduction of recombinant STAT3/DNA-binding relative to niclosamide [2]: performed worse than niclosamide | mean value, % of STAT3 only control [2]: 76%

CN(C(=O)c1cc(Cl)ccc1O)c1ccc([N+](=O)[O-])cc1Cl [Compound 8, 5-Chloro-N-(2-chloro-4-nitrophenyl)-2-hydroxy-N-methylbenzamide]
reduction of recombinant STAT3/DNA-binding relative to niclosamide [2]: means less than or equal to niclosamide | induction of apoptosis ([3]; 10 μM): time-dependent increase in apoptosis | reduction of STAT3/DNA-binding [4]: approx. 80% | EC50 [4]: 239 ± 39 nM | EC50 [5]: 1150 ± 380 nM

O=C(Nc1ccc([N+](=O)[O-])cc1Cl)c1cc([N+](=O)[O-])ccc1O [Compound 9, N-(2-Chloro-4-nitrophenyl)-2-hydroxy-5-nitrobenzamide]
reduction of recombinant STAT3/DNA-binding relative to niclosamide [2]: means less than or equal to niclosamide

Nc1ccc(NC(=O)c2cc(N)ccc2O)c(Cl)c1 [Compound 10, 5-Amino-N-(4-amino-2-chlorophenyl)-2-hydroxybenzamide]
affinity for the SH2 domain [1]: slight affinity for the SH2 domain

O=C(Nc1ccc([N+](=O)[O-])cc1Cl)c1cc(Cl)c(-c2ccccc2)cc1O [Compound 14, 2-Chloro-N-(2-chloro-4-nitrophenyl)-5-hydroxy-[1,1′-biphenyl]-4-carboxamide]
affinity for the SH2 domain [1]: slight affinity for the SH2 domain

O=C(Nc1ccc([N+](=O)[O-])cc1Cl)c1cc(Cl)c(-c2ccco2)cc1O [Compound 17, 5-Chloro-N-(2-chloro-4-nitrophenyl)-4-(furan-2-yl)-2-hydroxybenzamide]
cell viability of LSCs [6]: significant cell death | reduction of recombinant STAT3/DNA-binding relative to niclosamide [2]: means less than or equal to niclosamide | expression of OXPHOS and mitochondrial matrix genes [7]: decrease in the expression | Myc expression ([7]; verified by qPCR and western blot): decreased | oxygen consumption [8]: decrease in oxygen consumption | engraftment of primary AML cells [9]: decreased engraftment | induction of apoptosis ([3]; 1 μM): time-dependent increase in apoptosis | viability of CD34+ normal hematopoietic stem cells [10]: not affected | colony formation of primary human AML cells [11]: significant decrease in colony formation | reactive oxygen species (ROS) ([12]; AML cells): increased | TCA cycle metabolites ([12]; heavy labeled glutamine flux): decrease in TCA cycle metabolites | SLCA15 expression ([12]; western blot): downregulated | reduction of STAT3/DNA-binding [4]: approx. 80% | EC50 [4]: 59 ± 11 nM | total cell viability [5]: did not drop below 50% until high concentrations | EC50 [5]: 315 ± 70 nM | colony formation of CD34+ normal hematopoietic stem cells [13]: not affected

O=C(Nc1ccc([N+](=O)[O-])cc1Cl)c1cc(Cl)ccc1Cl [Compound 18, 2,5-Dichloro-N-(2-chloro-4-nitrophenyl)benzamide]
reduction of recombinant STAT3/DNA-binding relative to niclosamide [2]: means less than or equal to niclosamide

O=C(Nc1ccc([N+](=O)[O-])cc1Cl)c1cc(Cl)ccc1O [niclosamide, reference compound]
induction of apoptosis ([3]; 1 μM): only a slight increase in apoptosis | induction of apoptosis ([3]; 10 μM): twice as much apoptosis | reduction of STAT3/DNA-binding [4]: approx. 80% | EC50 [4]: 179 ± 28 nM | EC50 [5]: 1000 nM

S3I-1757 [Compound S3I-1757]
inhibition of fluorescent peptide binding [14]: complete inhibition
